According to patent publication US20250101041A1, “POSITIVE ALLOSTERIC MODULATORS OF THE MUSCARINIC ACETYLCHOLINE RECEPTOR M4” (Vanderbilt University, priority 2022, published 2025):
pEC50: −log10 of the molar value.

Target: T1, human mAChR M4 (Homo sapiens, UniProt P08173)
T1 construct: expressed in transfected cells; host or cells: CHO-K1 (American Type Culture Collection), stably expressing hM4 and Gqi5
T1 sequence (P08173 1-479): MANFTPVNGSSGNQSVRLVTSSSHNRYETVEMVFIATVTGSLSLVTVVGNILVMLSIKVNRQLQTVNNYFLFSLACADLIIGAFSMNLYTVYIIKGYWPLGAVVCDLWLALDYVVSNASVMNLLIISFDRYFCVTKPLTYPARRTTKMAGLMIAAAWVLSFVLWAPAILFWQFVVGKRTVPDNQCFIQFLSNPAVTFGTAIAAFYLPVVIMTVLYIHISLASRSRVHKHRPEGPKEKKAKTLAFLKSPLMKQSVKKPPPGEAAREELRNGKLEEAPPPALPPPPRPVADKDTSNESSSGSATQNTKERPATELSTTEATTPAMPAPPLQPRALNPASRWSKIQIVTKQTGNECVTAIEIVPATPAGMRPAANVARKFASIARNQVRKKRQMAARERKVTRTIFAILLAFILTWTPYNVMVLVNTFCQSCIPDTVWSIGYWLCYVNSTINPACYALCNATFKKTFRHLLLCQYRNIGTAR
Experiment: mAChR M4 cell-based functional assay: calcium mobilization (Fluo-4, FDSS), potentiation of EC20 acetylcholine response in hM4-Gqi5 CHO-K1 cells
Settings: human M4; for Emax at 30 µM: CHO-K1, % ACh maximum at 30 μM; for pEC50: potentiation of EC20 acetylcholine response, calcium mobilization
In short: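 CHO-K1 cells stably co-expressing human M4 and chimeric Gqi5, loaded with Fluo-4 AM (50 min, 37 °C). Compounds in 11-point 1:3 series added first; EC20 acetylcholine added at 144 s and again at 230 s. Calcium read on FDSS at 1 Hz; EC50 and Emax from four-parameter logistic fit of potentiated EC20 response.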

Cc1cc2nccc(=O)n2nc1N1CCc2ncc(-c3cccnn3)cc2C1 [Compound 1-352, 8-methyl-7-(3-(pyridazin-3-yl)-7,8-dihydro-1,6-naphthyridin-6(5H)-yl)-4H-pyrimido[1,2-b]pyridazin-4-one]
Emax at 30 µM: 59% | pEC50: 5.48

Cc1cc2nccc(=O)n2nc1N1CCc2ncc(Nc3c(F)ccnc3C)cc2C1 [Compound 2-114, 7-(3-((4-fluoro-2-methylpyridin-3-yl)amino)-7,8-dihydro-1,6-naphthyridin-6(5H)-yl)-8-methyl-4H-pyrimido[1,2-b]pyridazin-4-one]
Emax at 30 µM: 82% | pEC50: 6.78

Cc1cc(=O)n2nc(N3CCc4ncc(-c5cnn(C6CC6)c5)cc4C3)c(C)cc2n1 [Compound 1-32, 7-(3-(1-cyclopropyl-1H-pyrazol-4-yl)-7,8-dihydro-1,6-naphthyridin-6(5H)-yl)-2,8-dimethyl-4H-pyrimido[1,2-b]pyridazin-4-one]
Emax at 30 µM: 76% | pEC50: 6.39

COc1cncc(-c2cnc3c(c2)CN(c2nn4c(=O)cc(C(F)F)nc4c(C)c2C)CC3)c1 [Compound 1-167, 2-(difluoromethyl)-7-(3-(5-methoxypyridin-3-yl)-7,8-dihydro-1,6-naphthyridin-6(5H)-yl)-8,9-dimethyl-4H-pyrimido[1,2-b]pyridazin-4-one]
Emax at 30 µM: 80% | pEC50: 6.45

Cc1c(N2CCc3ncc(C(F)(F)F)cc3C2)nn2c(=O)cc(C(C)C)nc2c1C [Compound 1-107, 2-isopropyl-8,9-dimethyl-7-(3-(trifluoromethyl)-7,8-dihydro-1,6-naphthyridin-6(5H)-yl)-4H-pyrimido[1,2-b]pyridazin-4-one]
Emax at 30 µM: 102% | pEC50: 6.75

Cc1cc(=O)n2nc(N3CCc4ncc(-c5ccc(C)c(F)c5)cc4C3)c(C)c(C)c2n1 [Compound 1-196, 7-(3-(3-fluoro-4-methylphenyl)-7,8-dihydro-1,6-naphthyridin-6(5H)-yl)-2,8,9-trimethyl-4H-pyrimido[1,2-b]pyridazin-4-one]
Emax at 30 µM: 80% | pEC50: 5.95

Cc1c(N2CCc3ncc(-c4ccnn4C4COC4)cc3C2)nn2c(=O)ccnc2c1C [Compound 1-151, 8,9-dimethyl-7-(3-(1-(oxetan-3-yl)-1H-pyrazol-5-yl)-7,8-dihydro-1,6-naphthyridin-6(5H)-yl)-4H-pyrimido[1,2-b]pyridazin-4-one]
Emax at 30 µM: 75% | pEC50: 5.49

Cc1cc(F)cnc1-c1cnc2c(c1)CN(c1nn3c(=O)ccnc3cc1C)CC2 [Compound 1-350, 7-(3-(5-fluoro-3-methylpyridin-2-yl)-7,8-dihydro-1,6-naphthyridin-6(5H)-yl)-8-methyl-4H-pyrimido[1,2-b]pyridazin-4-one]
Emax at 30 µM: 72% | pEC50: 5.46

COc1ccsc1-c1cnc2c(c1)CN(c1nn3c(=O)cc(C(F)F)nc3c(C)c1C)CC2 [Compound 1-311, 2-(difluoromethyl)-7-(3-(3-methoxythiophen-2-yl)-7,8-dihydro-1,6-naphthyridin-6(5H)-yl)-8,9-dimethyl-4H-pyrimido[1,2-b]pyridazin-4-one]
Emax at 30 µM: 79% | pEC50: 5.90

Cc1cc(=O)n2nc(N3CCc4ncc(-c5ccncc5C)cc4C3)c(C)cc2n1 [Compound 1-241, 2,8-dimethyl-7-(3-(3-methylpyridin-4-yl)-7,8-dihydro-1,6-naphthyridin-6(5H)-yl)-4H-pyrimido[1,2-b] pyridazin-4-one]
Emax at 30 µM: 87% | pEC50: 6.64

Cc1cc(=O)n2nc(N3CCc4ncc(-c5cnccn5)cc4C3)c(C)c(C)c2n1 [Compound 1-125, 2,8,9-trimethyl-7-(3-(pyrazin-2-yl)-7,8-dihydro-1,6-naphthyridin-6(5H)-yl)-4H-pyrimido[1,2-b]pyridazin-4-one]
Emax at 30 µM: 97% | pEC50: 6.43

Cc1cc2nccc(=O)n2nc1N1CCc2ncc(-c3cnn(C(F)F)c3C)cc2C1 [Compound 1-414, 7-(3-(1-(difluoromethyl)-5-methyl-1H-pyrazol-4-yl)-7,8-dihydro-1,6-naphthyridin-6(5H)-yl)-8-methyl-4H-pyrimido[1,2-b]pyridazin-4-one]
Emax at 30 µM: 81% | pEC50: 6.36

Cc1cc(=O)n2nc(N3CCc4ncc(-c5cc(F)nc(F)c5)cc4C3)c(C)cc2n1 [Compound 1-242, 7-(3-(2,6-difluoropyridin-4-yl)-7,8-dihydro-1,6-naphthyridin-6(5H)-yl)-2,8-dimethyl-4H-pyrimido[1,2-b]pyridazin-4-one]
Emax at 30 µM: 79% | pEC50: 6.21

Cc1cc2nccc(=O)n2nc1N1CCc2ncc(NCC3CCOCC3)cc2C1 [Compound 2-91, 8-methyl-7-(3-(((tetrahydro-2H-pyran-4-yl)methyl)amino)-7,8-dihydro-1,6-naphthyridin-6(5H)-yl)-4H-pyrimido[1,2-b]pyridazin-4-one]
Emax at 30 µM: 80% | pEC50: 5.74

Cc1cc2nc(C(F)F)cc(=O)n2nc1N1CCc2ncc(N3CCOC(C)(C)C3)cc2C1 [Compound 2-24, 2-(difluoromethyl)-7-(3-(2,2-dimethylmorpholino)-7,8-dihydro-1,6-naphthyridin-6(5H)-yl)-8-methyl-4H-pyrimido[1,2-b]pyridazin-4-one]
Emax at 30 µM: 95% | pEC50: 7.29

COCc1cc(=O)n2nc(N3CCc4ncc(-c5cnn(C6CC6)c5)cc4C3)c(C)c(C)c2n1 [Compound 1-263, 7-(3-(1-cyclopropyl-1H-pyrazol-4-yl)-7,8-dihydro-1,6-naphthyridin-6(5H)-yl)-2-(methoxymethyl)-8,9-dimethyl-4H-pyrimido[1,2-b]pyridazin-4-one]
Emax at 30 µM: 86% | pEC50: 7.02

Cc1cc(=O)n2nc(N3CCc4ncc(-c5cnn(CC(F)(F)F)c5)cc4C3)c(C)cc2n1 [Compound 1-291, 2,8-dimethyl-7-(3-(1-(2,2,2-trifluoroethyl)-1H-pyrazol-4-yl)-7,8-dihydro-1,6-naphthyridin-6(5H)-yl)-4H-pyrimido[1,2-b]pyridazin-4-one]
Emax at 30 µM: 82% | pEC50: 6.45

Cc1cc2nccc(=O)n2nc1N1CCc2ncc(-c3cnn(C)c3C(F)F)cc2C1 [Compound 1-413, 7-(3-(5-(difluoromethyl)-1-methyl-1H-pyrazol-4-yl)-7,8-dihydro-1,6-naphthyridin-6(5H)-yl)-8-methyl-4H-pyrimido[1,2-b]pyridazin-4-one]
Emax at 30 µM: 89% | pEC50: 6.68

Cc1c(N2CCc3ncc(Oc4ccccc4F)cc3C2)nn2c(=O)ccnc2c1C [Compound 3-3, 7-(3-(2-Fluorophenoxy)-7,8-dihydro-1,6-naphthyridin-6(5H)-yl)-8,9-dimethyl-4H-pyrimido[1,2-b]pyridazin-4-one]
Emax at 30 µM: 96% | pEC50: 7.54

Cc1cc2nccc(=O)n2nc1N1CCc2ncc(N3CC(C)(C)Oc4ccccc43)cc2C1 [Compound 2-51, 7-(3-(2,2-dimethyl-2,3-dihydro-4H-benzo[b][1,4]oxazin-4-yl)-7,8-dihydro-1,6-naphthyridin-6(5H)-yl)-8-methyl-4H-pyrimido[1,2-b]pyridazin-4-one]
Emax at 30 µM: 80% | pEC50: 6.90

Cc1cc(=O)n2nc(N3CCc4ncc(N5CCSCC5)cc4C3)c(C)c(C)c2n1 [Compound 2-46, 2,8,9-trimethyl-7-(3-thiomorpholino-7,8-dihydro-1,6-naphthyridin-6(5H)-yl)-4H-pyrimido[1,2-b]pyridazin-4-one]
Emax at 30 µM: 99% | pEC50: 6.51

COCc1cc(=O)n2nc(N3CCc4ncc(-c5sccc5OC)cc4C3)c(C)cc2n1 [Compound 1-368, 2-(methoxymethyl)-7-(3-(3-methoxythiophen-2-yl)-7,8-dihydro-1,6-naphthyridin-6(5H)-yl)-8-methyl-4H-pyrimido[1,2-b]pyridazin-4-one]
Emax at 30 µM: 95% | pEC50: 6.53

Cc1cc2nccc(=O)n2nc1N1CCc2ncc(-c3cccc4[nH]cc(C)c34)cc2C1 [Compound 1-435, 8-methyl-7-(3-(3-methyl-1H-indol-4-yl)-7,8-dihydro-1,6-naphthyridin-6(5H)-yl)-4H-pyrimido[1,2-b]pyridazin-4-one]
Emax at 30 µM: 51% | pEC50: 5.70

COc1nccc(-c2cnc3c(c2)CN(c2nn4c(=O)ccnc4cc2C)CC3)c1C [Compound 1-427, 7-(3-(2-methoxy-3-methylpyridin-4-yl)-7,8-dihydro-1,6-naphthyridin-6(5H)-yl)-8-methyl-4H-pyrimido[1,2-b]pyridazin-4-one]
Emax at 30 µM: 78% | pEC50: 5.82

Cc1c(N2CCc3ncc(C(F)(F)F)cc3C2)nn2c(=O)ccnc2c1C1CC1 [Compound 1-113, 9-cyclopropyl-8-methyl-7-(3-(trifluoromethyl)-7,8-dihydro-1,6-naphthyridin-6(5H)-yl)-4H-pyrimido[1,2-b]pyridazin-4-one]
Emax at 30 µM: 73% | pEC50: 6.58

Cc1cc(=O)n2nc(N3CCc4ncc(-c5ccc(F)cc5C)cc4C3)c(C)c(C)c2n1 [Compound 1-274, 7-(3-(4-fluoro-2-methylphenyl)-7,8-dihydro-1,6-naphthyridin-6(5H)-yl)-2,8,9-trimethyl-4H-pyrimido[1,2-b]pyridazin-4-one]
Emax at 30 µM: 84% | pEC50: 6.35
